Experimental data published in the kinase profiling compilation of Christmann-Franck et al. (2016).

What was measured:
Conditions in all cases: compound 10.0 µM
[1] = test system: LRRK2 (human), Q5S007 [G2019S]
[2] = target: STK32A (human) (UniProt Q8WU08)
[3] = test system: KIT (human), P10721 [V559D/T670I]
[4] = target: HUNK (human) (UniProt P57058)
[5] = target: DSTYK (human) (UniProt Q6XUX3)
[6] = target: SGK110 (human) (UniProt P0C264)
[7] = target: NIM1 (human) (UniProt Q8IY84)
[8] = test system: FGFR3 (human), P22607 [G697C]
[9] = target: TAOK2 (human) (UniProt Q9UL54)
[10] = target: DCLK1 (human) (UniProt O15075)
[11] = target: LTK (human) (UniProt P29376)
[12] = target: FES (human) (UniProt P07332)
[13] = target: CSNK1G2 (human) (UniProt P78368)
[14] = target: YSK4 (human) (UniProt Q56UN5)
[15] = target: TRPM6 (human) (UniProt Q9BX84)
[16] = target: ACVR2B (human) (UniProt Q13705)
[17] = target: CSK (human) (UniProt P41240)
[18] = target: MAPKAPK5 (human) (UniProt Q8IW41)
MAPKAPK5 (human), sequence (Q8IW41 whole entry, looked up): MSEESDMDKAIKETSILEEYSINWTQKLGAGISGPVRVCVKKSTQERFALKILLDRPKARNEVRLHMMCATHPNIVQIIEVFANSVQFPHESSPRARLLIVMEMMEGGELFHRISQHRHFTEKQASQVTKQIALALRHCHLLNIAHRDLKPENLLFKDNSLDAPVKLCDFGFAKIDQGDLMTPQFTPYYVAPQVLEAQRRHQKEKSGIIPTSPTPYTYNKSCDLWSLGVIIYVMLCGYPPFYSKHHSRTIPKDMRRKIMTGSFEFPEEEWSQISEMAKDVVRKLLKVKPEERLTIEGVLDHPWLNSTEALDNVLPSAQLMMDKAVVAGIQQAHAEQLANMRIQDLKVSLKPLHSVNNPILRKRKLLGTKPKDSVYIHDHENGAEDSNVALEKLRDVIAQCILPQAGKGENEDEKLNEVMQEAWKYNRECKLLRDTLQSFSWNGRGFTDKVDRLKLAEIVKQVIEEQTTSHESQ

[19] = target: IRAK3 (human) (UniProt Q9Y616)
[20] = target: IGF1R (human) (UniProt P08069)
[21] = target: PTK2 (human) (UniProt Q05397)
[22] = target: ITK (human) (UniProt Q08881)
ITK (human), sequence (Q08881 whole entry, looked up): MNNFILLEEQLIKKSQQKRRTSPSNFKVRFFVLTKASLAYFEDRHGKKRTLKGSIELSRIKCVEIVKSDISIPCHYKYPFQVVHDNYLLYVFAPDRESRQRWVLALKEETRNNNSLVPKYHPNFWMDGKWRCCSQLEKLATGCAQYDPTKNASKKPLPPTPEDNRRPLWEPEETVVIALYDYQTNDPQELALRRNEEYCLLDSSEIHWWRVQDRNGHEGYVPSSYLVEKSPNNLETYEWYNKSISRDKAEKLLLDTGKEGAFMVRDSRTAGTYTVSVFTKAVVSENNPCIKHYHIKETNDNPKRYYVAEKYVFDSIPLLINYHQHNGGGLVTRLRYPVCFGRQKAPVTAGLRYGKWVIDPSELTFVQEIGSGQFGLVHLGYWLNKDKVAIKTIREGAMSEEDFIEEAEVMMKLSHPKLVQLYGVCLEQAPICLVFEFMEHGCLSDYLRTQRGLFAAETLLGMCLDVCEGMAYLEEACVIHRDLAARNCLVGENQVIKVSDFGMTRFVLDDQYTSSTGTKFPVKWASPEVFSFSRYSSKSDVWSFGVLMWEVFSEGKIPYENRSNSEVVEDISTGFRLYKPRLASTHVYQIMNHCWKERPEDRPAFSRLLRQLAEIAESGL

[23] = target: MAP3K6 (human) (UniProt O95382)
[24] = target: ADCK4 (human) (UniProt Q96D53)
[25] = target: MAP2K6 (human) (UniProt P52564)
[26] = target: PRKG1 (human) (UniProt Q13976)
[27] = target: CDK2 (human) (UniProt P24941)
[28] = target: MAP3K15 (human) (UniProt Q6ZN16)
[29] = target: FGR (human) (UniProt P09769)
[30] = target: OXSR1 (human) (UniProt O95747)
[31] = target: TLK1 (human) (UniProt Q9UKI8)
[32] = target: MAP2K3 (human) (UniProt P46734)
[33] = target: BRSK1 (human) (UniProt Q8TDC3)
BRSK1 (human), sequence (Q8TDC3 whole entry, looked up): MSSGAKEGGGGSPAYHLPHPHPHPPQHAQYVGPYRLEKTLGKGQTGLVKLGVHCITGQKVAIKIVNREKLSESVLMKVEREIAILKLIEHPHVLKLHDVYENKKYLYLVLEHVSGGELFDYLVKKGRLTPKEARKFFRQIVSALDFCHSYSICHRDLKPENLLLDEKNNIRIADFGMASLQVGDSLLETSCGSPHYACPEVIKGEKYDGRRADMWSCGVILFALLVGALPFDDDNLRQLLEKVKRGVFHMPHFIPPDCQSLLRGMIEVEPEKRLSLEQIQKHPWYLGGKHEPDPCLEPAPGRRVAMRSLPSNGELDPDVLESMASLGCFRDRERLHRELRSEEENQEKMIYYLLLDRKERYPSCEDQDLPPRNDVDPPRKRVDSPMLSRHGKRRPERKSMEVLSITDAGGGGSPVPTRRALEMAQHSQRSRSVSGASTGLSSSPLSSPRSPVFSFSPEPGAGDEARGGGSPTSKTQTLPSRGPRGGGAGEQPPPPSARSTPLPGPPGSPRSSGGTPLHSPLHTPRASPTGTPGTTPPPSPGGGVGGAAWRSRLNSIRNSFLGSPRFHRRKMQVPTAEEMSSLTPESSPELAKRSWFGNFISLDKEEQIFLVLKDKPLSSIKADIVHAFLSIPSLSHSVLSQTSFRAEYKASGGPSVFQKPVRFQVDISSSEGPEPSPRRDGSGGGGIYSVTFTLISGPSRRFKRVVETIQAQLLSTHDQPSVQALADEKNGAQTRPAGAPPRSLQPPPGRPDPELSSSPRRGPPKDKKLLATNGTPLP

[34] = target: TXK (human) (UniProt P42681)
TXK (human), sequence (P42681 whole entry, looked up): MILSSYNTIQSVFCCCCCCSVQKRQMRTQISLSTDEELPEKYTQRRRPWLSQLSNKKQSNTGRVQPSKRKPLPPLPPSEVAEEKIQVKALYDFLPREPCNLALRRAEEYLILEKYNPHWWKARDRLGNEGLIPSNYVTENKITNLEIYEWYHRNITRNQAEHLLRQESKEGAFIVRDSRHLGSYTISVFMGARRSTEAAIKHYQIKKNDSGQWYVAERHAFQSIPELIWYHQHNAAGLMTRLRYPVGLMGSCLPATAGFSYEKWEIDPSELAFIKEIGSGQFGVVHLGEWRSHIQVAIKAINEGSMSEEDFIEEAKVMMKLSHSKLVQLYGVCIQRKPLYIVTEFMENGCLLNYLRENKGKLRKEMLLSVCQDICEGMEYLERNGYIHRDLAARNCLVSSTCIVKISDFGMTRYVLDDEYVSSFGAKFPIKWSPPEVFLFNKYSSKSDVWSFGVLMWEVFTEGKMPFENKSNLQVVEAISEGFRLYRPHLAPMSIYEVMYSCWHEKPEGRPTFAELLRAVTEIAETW

[35] = target: PIM3 (human) (UniProt Q86V86)
[36] = target: CAMK2G (human) (UniProt Q13555)
CAMK2G (human), sequence (Q13555 whole entry, looked up): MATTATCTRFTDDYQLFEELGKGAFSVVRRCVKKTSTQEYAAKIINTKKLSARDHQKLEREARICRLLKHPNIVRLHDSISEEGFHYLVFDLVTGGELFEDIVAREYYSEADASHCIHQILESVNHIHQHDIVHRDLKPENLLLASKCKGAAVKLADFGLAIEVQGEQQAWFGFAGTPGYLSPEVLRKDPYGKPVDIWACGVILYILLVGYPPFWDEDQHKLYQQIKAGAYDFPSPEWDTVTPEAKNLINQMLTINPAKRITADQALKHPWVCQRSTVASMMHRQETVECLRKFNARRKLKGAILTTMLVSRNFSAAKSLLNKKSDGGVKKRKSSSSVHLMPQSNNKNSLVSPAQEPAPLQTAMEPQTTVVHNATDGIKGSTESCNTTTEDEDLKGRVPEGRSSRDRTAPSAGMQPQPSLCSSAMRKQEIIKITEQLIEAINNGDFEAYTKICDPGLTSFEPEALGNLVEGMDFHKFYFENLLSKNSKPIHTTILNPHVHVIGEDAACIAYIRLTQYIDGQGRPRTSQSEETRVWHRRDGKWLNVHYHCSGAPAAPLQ

[37] = target: MET (human) (UniProt P08581)
[38] = test system: KIT (human), P10721 [V559D/V654A]
KIT (human), P10721 [V559D/V654A], sequence (P10721 whole entry V559D/V654A, looked up): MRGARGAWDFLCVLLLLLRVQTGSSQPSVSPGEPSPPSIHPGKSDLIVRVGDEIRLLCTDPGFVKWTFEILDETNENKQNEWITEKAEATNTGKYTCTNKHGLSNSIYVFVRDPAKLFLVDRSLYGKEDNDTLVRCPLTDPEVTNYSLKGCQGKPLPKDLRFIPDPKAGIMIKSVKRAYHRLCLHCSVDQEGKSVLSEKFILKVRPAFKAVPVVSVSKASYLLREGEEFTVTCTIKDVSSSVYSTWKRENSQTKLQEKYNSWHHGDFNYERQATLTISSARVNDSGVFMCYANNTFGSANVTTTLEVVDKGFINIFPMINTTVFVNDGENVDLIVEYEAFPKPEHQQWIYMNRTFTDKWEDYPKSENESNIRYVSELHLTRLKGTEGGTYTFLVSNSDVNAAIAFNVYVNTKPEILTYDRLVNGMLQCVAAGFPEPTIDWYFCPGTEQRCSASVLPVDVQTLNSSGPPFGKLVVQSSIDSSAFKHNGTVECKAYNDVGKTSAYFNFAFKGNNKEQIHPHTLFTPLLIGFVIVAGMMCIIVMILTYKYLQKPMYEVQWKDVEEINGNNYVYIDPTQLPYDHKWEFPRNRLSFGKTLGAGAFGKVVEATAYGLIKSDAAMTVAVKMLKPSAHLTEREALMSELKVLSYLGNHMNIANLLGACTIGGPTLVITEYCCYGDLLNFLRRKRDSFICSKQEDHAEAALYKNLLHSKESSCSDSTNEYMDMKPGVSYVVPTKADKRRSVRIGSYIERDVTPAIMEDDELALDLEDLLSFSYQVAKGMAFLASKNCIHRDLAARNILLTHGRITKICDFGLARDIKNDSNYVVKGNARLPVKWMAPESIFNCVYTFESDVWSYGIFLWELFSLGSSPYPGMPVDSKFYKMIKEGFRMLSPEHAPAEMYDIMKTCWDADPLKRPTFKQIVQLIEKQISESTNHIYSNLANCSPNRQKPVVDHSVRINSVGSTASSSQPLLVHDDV

[39] = target: KIT (human) (UniProt P10721)
KIT (human), sequence (P10721 whole entry, looked up): as the sequence (P10721 whole entry V559D/V654A, looked up) above, with D559V, A654V counted along it

[40] = target: STK38 (human) (UniProt Q15208)
[41] = target: LRRK2 (human) (UniProt Q5S007)
[42] = target: PRKCH (human) (UniProt P24723)

STK32A (human), sequence (Q8WU08 whole entry, looked up): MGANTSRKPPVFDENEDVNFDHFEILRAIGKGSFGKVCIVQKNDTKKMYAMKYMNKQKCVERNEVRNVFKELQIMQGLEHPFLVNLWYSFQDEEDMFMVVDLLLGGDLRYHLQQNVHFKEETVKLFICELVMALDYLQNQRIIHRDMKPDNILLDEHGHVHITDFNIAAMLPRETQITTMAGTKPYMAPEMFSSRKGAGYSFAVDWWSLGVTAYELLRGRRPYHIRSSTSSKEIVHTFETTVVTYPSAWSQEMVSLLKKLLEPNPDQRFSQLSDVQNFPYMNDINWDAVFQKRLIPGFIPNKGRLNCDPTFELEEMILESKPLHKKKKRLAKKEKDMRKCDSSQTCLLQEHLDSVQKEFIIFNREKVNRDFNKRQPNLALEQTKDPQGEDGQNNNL
NIM1 (human), sequence (Q8IY84 whole entry, looked up): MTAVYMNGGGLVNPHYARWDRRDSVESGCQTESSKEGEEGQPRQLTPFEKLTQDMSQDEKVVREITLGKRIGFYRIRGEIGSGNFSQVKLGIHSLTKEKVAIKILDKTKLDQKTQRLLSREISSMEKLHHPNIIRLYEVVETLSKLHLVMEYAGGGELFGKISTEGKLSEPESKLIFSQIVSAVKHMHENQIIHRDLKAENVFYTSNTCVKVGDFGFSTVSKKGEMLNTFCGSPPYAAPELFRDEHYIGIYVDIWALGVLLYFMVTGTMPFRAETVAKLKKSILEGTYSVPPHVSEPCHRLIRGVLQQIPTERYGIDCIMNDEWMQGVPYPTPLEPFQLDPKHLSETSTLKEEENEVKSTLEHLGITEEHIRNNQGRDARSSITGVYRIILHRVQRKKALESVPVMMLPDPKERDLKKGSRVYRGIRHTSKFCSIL
KIT (human), P10721 [V559D/T670I], sequence (P10721 whole entry V559D/T670I, looked up): as the sequence (P10721 whole entry V559D/V654A, looked up) above, with A654V, T670I counted along it

## CNC(=O)c1cc(Oc2ccc(NC(=O)Nc3ccc(Cl)c(C(F)(F)F)c3)cc2)cc[n+]1[O-]
[1]
  per cent of control: 64%
[2]
  per cent of control: 92%
[3]
  per cent of control: 0%
[4]
  per cent of control: 74%
[5]
  per cent of control: 68%
[6]
  per cent of control: 100%
[7]
  per cent of control: 100%
[8]
  per cent of control: 50%
[9]
  per cent of control: 8%
[10]
  per cent of control: 53%
[11]
  per cent of control: 73%
[12]
  per cent of control: 98%
[13]
  per cent of control: 100%
[14]
  per cent of control: 0.1%
[15]
  per cent of control: 100%
[16]
  per cent of control: 22%
[17]
  per cent of control: 1%
[18]
  per cent of control: 100%
[19]
  per cent of control: 91%
[20]
  per cent of control: 97%
[21]
  per cent of control: 97%
[22]
  per cent of control: 100%
[23]
  per cent of control: 64%
[24]
  per cent of control: 81%
[25]
  per cent of control: 55%
[26]
  per cent of control: 98%
[27]
  per cent of control: 1.8%
[28]
  per cent of control: 80%
[29]
  per cent of control: 28%
[30]
  per cent of control: 100%
[31]
  per cent of control: 60%
[32]
  per cent of control: 71%
[33]
  per cent of control: 76%
[34]
  per cent of control: 78%
[35]
  per cent of control: 100%
[36]
  per cent of control: 96%
[37]
  per cent of control: 16%
[38]
  per cent of control: 0.45%
[39]
  per cent of control: 0%
[40]
  per cent of control: 100%
[41]
  per cent of control: 80%
[42]
  per cent of control: 84%

## CNC(=O)c1cc(Oc2ccc(NC(=O)Nc3ccc(Cl)c(C(F)(F)F)c3)cc2)ccn1
[1]
  per cent of control: 62%
[2]
  per cent of control: 100%
[3]
  per cent of control: 0%
[4]
  per cent of control: 90%
[5]
  per cent of control: 100%
[6]
  per cent of control: 91%
[7]
  per cent of control: 100%
[8]
  per cent of control: 25%
[9]
  per cent of control: 0.65%
[10]
  per cent of control: 62%
[11]
  per cent of control: 76%
[12]
  per cent of control: 72%
[13]
  per cent of control: 100%
[14]
  per cent of control: 0%
[15]
  per cent of control: 100%
[16]
  per cent of control: 68%
[17]
  per cent of control: 52%
[18]
  per cent of control: 100%
[19]
  per cent of control: 76%
[20]
  per cent of control: 100%
[21]
  per cent of control: 100%
[22]
  per cent of control: 100%
[23]
  per cent of control: 72%
[24]
  per cent of control: 90%
[25]
  per cent of control: 73%
[26]
  per cent of control: 100%
[27]
  per cent of control: 15%
[28]
  per cent of control: 79%
[29]
  per cent of control: 41%
[30]
  per cent of control: 100%
[31]
  per cent of control: 74%
[32]
  per cent of control: 93%
[33]
  per cent of control: 100%
[34]
  per cent of control: 98%
[35]
  per cent of control: 100%
[36]
  per cent of control: 100%
[37]
  per cent of control: 74%
[38]
  per cent of control: 0.45%
[39]
  per cent of control: 0%
[40]
  per cent of control: 100%
[41]
  per cent of control: 86%
[42]
  per cent of control: 89%
